Values after ≈ are worked out from the molar mass of the structure shown. Where two headings read alike, the source gives them in different places.
What was measured:
[1] = test system: Escherichia coli ATCC 33,876; test: Broth microdilution susceptibility assay (MIC) with plating on agar (MBC); assay type: cell-based; conditions: ATCC33, E. coli, overnight 37 °C, conjugate concentration as loaded ADEP1 analogue
Description: (§1) ADEP1 analogues (SC005-8) were synthesized in-house, as described by Cobongela et al., [11]. 1-Ethyl-3-(3-dimethylaminopropyl) carbodiimide (EDC), […] (sulfo-NHS), dimethyl sulfoxide (DMSO), thioglycolic acid (TGA), silver nitrate (AgNO3), sodium sulfide (Na2S·xH2O), gelatin, Dulbecco’s Modified Eagle Medium (DMEM), phosphate, trypsin, penicillin-streptomycin, fetal bovine serum (FBS), 3-(4,5-dimethylthiazol-2-yl)-5-(3-carboxymethoxyphenyl)-2-(4-sulfophenyl)-2H-tetrazolium (MTS dye), and trypan blue stain dye were all purchased from Sigma (St Louis, MO, USA). Bacillus subtilis American Type Culture Collection (ATCC) 11774, Staphylococcus aureus ATCC 25,923 and Methicillin-resistant Staphylococcus aureus (MRSA) ATCC 43300, and two Gram-negative (Escherichia coli ATCC 33,876 and Pseudomonas aeruginosa ATCC 15,442 were purchased from ATCC (Manassas, VA, USA). Human embryonic kidney 293 (HEK-293) cells were purchased from Cellonex (Randburg, Gauteng Province, South Africa).
(§2) The MIC and MBC of the AgInS2-ADEP1 analogue conjugates against B. subtilis, S. aureus, MRSA, P. aeruginosa and E. coli was determined using the broth microdilution susceptibility assay, following a previously described protocol. Briefly, overnight-grown bacterial cultures were adjusted to approximately 1.5 × 10^8 CFU/mL in a sterile Luria–Bertani broth. The concentration of ADEP1 on AgInS2-ADEP1 analogue conjugates was calculated based on the ADEP1 analogues calibration curve. AgInS2-ADEP1 analogue conjugates and ADEP1 analogues were diluted via 2-fold serial dilution with broth containing a final concentration range of 0.8–100 µM and 15.6–2000 µM, respectively. Gentamicin (concentration range between 0.007 and 6.7 mM) was used as a positive control for B. subtilis, S. aureus, MRSA, and P. aeruginosa, while ampicillin (concentration range between 0.18 and 6.7 mM) was used as a positive control for E. coli, and 5% DMSO was used as a negative control. The 96-well plates were then incubated overnight at 37 °C. […] The MBC was determined as the lowest concentration resulting in complete […].

[2] = test system: Bacillus subtilis ATCC 11774; test: as above; assay type: cell-based; conditions: ATCC11774, B. subtilis, overnight 37 °C, conjugate concentration as loaded ADEP1 analogue
Description: as §1, §2

[3] = test system: Methicillin-resistant Staphylococcus aureus (MRSA) ATCC 43300; test: as above; assay type: cell-based; conditions: overnight 37 °C, conjugate concentration as loaded ADEP1 analogue
Description: as §1, §2

[4] = test system: Pseudomonas aeruginosa ATCC 15,442; test: as above; assay type: cell-based; conditions: ATCC15, P. aeruginosa, overnight 37 °C, conjugate concentration as loaded ADEP1 analogue
Description: as §1, §2

[5] = test system: Staphylococcus aureus ATCC 25,923; test: as above; assay type: cell-based; conditions: ATCC25, S. aureus, overnight 37 °C, conjugate concentration as loaded ADEP1 analogue
Description: as §1, §2

[6] = test system: Pseudomonas aeruginosa ATCC 15,442; conditions: P. aeruginosa; free ADEP1 analogues; cited from earlier work
Description: Table 4 MIC and MBC values of the AgInS2 QD-ADEP1 analogue conjugates and ADEP1 analogues. | column: P. aeruginosa / MIC µM; P. aeruginosa / MBC µM

[7] = test system: Staphylococcus aureus ATCC 25,923; conditions: S. aureus; free ADEP1 analogues; cited from earlier work
Description: Table 4 MIC and MBC values of the AgInS2 QD-ADEP1 analogue conjugates and ADEP1 analogues. | column: S. aureus / MIC µM; S. aureus / MBC µM

[8] = test system: Bacillus subtilis ATCC 11774; conditions: B. subtilis; free ADEP1 analogues; cited from earlier work
Description: Table 4 MIC and MBC values of the AgInS2 QD-ADEP1 analogue conjugates and ADEP1 analogues. | column: B. subtilis / MIC µM; B. subtilis / MBC µM

[9] = test system: Methicillin-resistant Staphylococcus aureus (MRSA) ATCC 43300; conditions: free ADEP1 analogues; cited from earlier work
Description: Table 4 MIC and MBC values of the AgInS2 QD-ADEP1 analogue conjugates and ADEP1 analogues. | column: MRSA / MIC µM; MRSA / MBC µM

[10] = test system: Escherichia coli ATCC 33,876; conditions: E. coli; free ADEP1 analogues; cited from earlier work
Description: Table 4 MIC and MBC values of the AgInS2 QD-ADEP1 analogue conjugates and ADEP1 analogues. | column: E. coli / MIC µM; E. coli / MBC µM

[11] = Zeta potential (zetasizer); assay type: physicochemical; conditions: Malvern zetasizer; for Zeta Potential after Conjugation: after conjugation to gelatin-capped AgInS2 QDs; for Zeta Potential before Conjugation: unconjugated ADEP1 analogue or AgInS2 QDs alone
Method: (§3) A Spectro Xepos-05 energy-dispersive X-ray fluorescence (ED-XRF, Rigaku, TX, USA) instrument was used to determine the Ag, In, and S concentrations in the gelatin-capped AgInS2 QD powder. The core sizes of AgInS2 QDs and AgInS2-ADEP1 analogue conjugates were analyzed by the high-resolution transmission electron microscope (HR-TEM, JEOL, Tokyo, Japan). Fourier transform infrared spectroscopy (FTIR) spectra were recorded using a Perkin Elmer Spectrum Two UATR-FTIR spectrometer (PerkinElmer, Buckinghamshire, UK). The Hitachi F-2700FL spectrofluorophotometer (Hitachi, Tokyo, Japan) was used for the fluorescence measurements. Malvern system 4700 zetasizer (Malvern, Great Malvern, UK) together with a dynamic light scattering (DLS) technique were used to determine the zeta potential and particle hydrodynamic size of the AgInS2 QDs and AgInS2-ADEP1 analogue conjugates using.

[12] = Hydrodynamic size by dynamic light scattering (DLS); assay type: physicochemical; conditions: AgInS2 QDs alone or after conjugation with the named ADEP1 analogue
Method: as §3

[13] = Luria-Bertani broth, ~1.5 × 10^8 CFU/mL
[14] = MIC wells plated on Luria-Bertani agar

| Compound | MBC [6] | MIC [6] | MBC [7] | MIC [7] | MBC [8] | MIC [8] | MBC [9] | MIC [9] | MBC [10] | MIC [10] | Zeta Potential after Conjugation [11] | Zeta Potential before Conjugation [11] | Hydrodynamic Diameter [12] | further results |
| --- | --- | --- | --- | --- | --- | --- | --- | --- | --- | --- | --- | --- | --- | --- |
| CC1(C)S[C@@H]2[C@H](NC(=O)[C@H](N)c3ccccc3)C(=O)N2[C@H]1C(=O)O [Ampicillin] |  |  |  |  |  |  |  |  |  |  |  |  |  | MIC [1, 13]: 2860 µM (≈ 1000 µg/mL); MBC [1, 14]: 5720 µM (≈ 2000 µg/mL) |
| CNC(C)C1CCC(N)C(OC2C(N)CC(N)C(OC3OCC(C)(O)C(NC)C3O)C2O)O1 (centres unmarked) [Gentamicin] |  |  |  |  |  |  |  |  |  |  |  |  |  | MIC ([2]; Luria-Bertani broth, ~1.5 × 10^8 CFU/mL, no visible growth): 26.1 µM (≈ 12.5 µg/mL); MBC [2, 14]: 52.3 µM (≈ 25 µg/mL); MIC [3, 13]: 26.2 µM (≈ 12.5 µg/mL); MBC [3, 14]: 52.4 µM (≈ 25 µg/mL); MIC [4, 13]: 419 µM (≈ 200 µg/mL); MBC [4, 14]: 838 µM (≈ 400 µg/mL); MIC [5, 13]: 0.5 µM (≈ 0.239 µg/mL); MBC [5, 14]: 1 µM (≈ 0.478 µg/mL) |
| Adamantane-FCPAAPC; D-form amino acids (disulfide) [SC006, Disulphide bond cyclized ADEP1 analogue, Adamantane-FCPAAPC, D-form amino acids] | 250 µM | 125 µM | 125 µM | 63 µM | 250 µM | 250 µM | 250 µM | 250 µM | 750 µM | 500 µM | 1.38 ± 0.06 mV | −3.8 ± 1.1 mV | 44.2 ± 1.4 nm |  |
| Adamantane-FCPAAPC; L-form amino acids (disulfide) [SC007, Disulphide bond cyclized ADEP1 analogue, Adamantane-FCPAAPC, L-form amino acids] | 250 µM | 125 µM | 125 µM | 63 µM | 125 µM | 125 µM | 500 µM | 250 µM | 750 µM | 500 µM | 1.00 ± 0.15 mV | −3.9 ± 0.8 mV | 44.4 ± 0.7 nm |  |
| Palmitic acid-FCPAAPC; D-form amino acids (disulfide) [SC005, Disulphide bond cyclized ADEP1 analogue, Palmitic acid-FCPAAPC, D-form amino acids] | 250 µM | 125 µM | 125 µM | 63 µM | 125 µM | 125 µM | 250 µM | 125 µM | 750 µM | 500 µM | 1.46 ± 0.02 mV | −7.2 ± 1.6 mV | 49.6 ± 1.6 nm |  |
| Palmitic acid-FCPAAPC; L-form amino acids (disulfide) [SC008, Disulphide bond cyclized ADEP1 analogue, Palmitic acid-FCPAAPC, L-form amino acids] | 250 µM | 125 µM | 125 µM | 63 µM | 125 µM | 125 µM | 500 µM | 250 µM | 750 µM | 500 µM | 1.39 ± 0.09 mV | −6.9 ± 1.5 mV | 50.3 ± 1.6 nm |  |

Source: paper PMC10886425, “Antibacterial Activity and Cytotoxicity Screening of Acyldepsipeptide-1 Analogues Conjugated to Silver/Indium/Sulphide Quantum Dots” (Antibiotics, 2024)
